Reference: patent US5578622A, “Isothiazole derivatives and their uses” (Asamura Patent Office, priority 1994, dated 1996)

Experiments:
Trichoderma viride = assay: Test for wood rotting-preventing effect (mycelium growth inhibition on malt extract agar); format: cell-based; conditions: 28° C.±2° C., 2 to 10 days, read-out: Rotting preventing effect (mycelium growth-inhibitory rate), TRV
Procedure, shortened: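 Mycelial agar disks (4 mm) placed on malt extract agar containing 50 ppm test compound and cultured at 28 °C ± 2 °C. Colony diameter measured 2–10 days after inoculation; growth-inhibitory rate (%) reported as symbol grades.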

Aspergillus niger = assay: as above; format: cell-based; conditions: 28° C.±2° C., 2 to 10 days, read-out: Rotting preventing effect (mycelium growth-inhibitory rate), ASN
Procedure, shortened: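 Mycelial agar disks (4 mm) placed on malt extract agar containing 50 ppm test compound, incubated at 28° C.±2° C. Colony diameter measured 2–10 days after inoculation; growth-inhibitory rate (%) reported as symbol-coded score.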

[1] = system: Gibberella fujikuroi ("Bakanae" disease of rice); assay: Test for rice seed-disinfecting effect; format: in vivo; conditions: Fusarium fujikuroi, 504 h, seed immersion 25° C. 24 hours, three weeks after treatment, read-out: Controlling effect (control of disease), "Bakanae" disease of rice
Procedure, shortened: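 Bakanae-infected unhulled rice seed soaked 24 hours at 25° C in 1000 ppm compound, then sown and germinated two days. Infected-seedling rate scored three weeks after treatment; control calculated against untreated plot and graded on a standard scale.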

[2] = system: Pseudoperonospora cubensis; assay: Test for controlling effect on downy mildew of cucumber; format: in vivo; conditions: 168 h, 200 ppm spray, one day before inoculation, cucumber 2-leaf stage, read-out: Controlling effect (control of disease), Downy mildew of cucumber
Procedure, shortened: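 200 ppm compound sprayed on potted 2-leaf cucumber; P. cubensis zoospores spray-inoculated one day later. Plants kept 1 day in humid room at 25° C, then 6 days in greenhouse. Control computed from per-leaf infection relative to untreated plot.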

Rhizoctonia solani = assay: Test for controlling effect on sheath blight of rice; format: in vivo; conditions: 120 h, 200 ppm spray, 24 hours after inoculation, rice 4-leaf stage, five days after inoculation, read-out: Controlling effect (control of disease), Sheath blight of rice
Procedure, shortened: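 Rice seedlings at the 4-leaf stage were inoculated with mycelium, then sprayed 24 h later with compound at 200 ppm. After air-drying, plants were held 24 h at 28 °C and 98% humidity, then moved to a greenhouse. Infected area was scored 5 days post-inoculation; control was calculated relative to untreated plants.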

[3] = system: Candida albicans IFO 1270; assay: In vitro antimycotic activity on Candida albicans; format: cell-based; conditions: IFO1270, 10 (ppm), SGB, 37° C., 48 hours, turbidity at 650 nm, read-out: Antimycotic activity (growth inhibitory rate), C.albicans
Method: 3-1 In vitro antimycotic activity on Candida albicans
Candida albicans IFO 1270 pre-cultured on a Sabouraud's glucose agar (SGA) plate medium at 37° C. […] was suspended in a sterilized physiological salt solution. The number of fungi in the resulting suspension was counted with a globulimeter, and adjusted so as to be 1×10^7 cell/ml with a sterilized physiological salt solution. This solution was used as an inoculum solution. Thereafter, 0.1 ml of this solution and 0.1 ml of a dimethyl sulfoxide (DMSO) solution of the test compound were added to 9.8 ml of Sabouraud's glucose broth (SGB), and shake-cultured at 37° C. for 48 hours. After culture, the medium turbidity was measured at 650 nm, and the growth-inhibitory rate of the fungus was calculated according to the following equation.
Growth inhibitory rate (%)=(1-W/Y)×100
Y: Medium turbidity of DMSO control group
W: Medium turbidity of test compound group
From this inhibitory rate, the antimycotic activity was shown by the symbols A to D. The test results of the test compounds are shown in Table 4.

[4] = system: Aspergillus fumigatus TIMM 0063; assay: In vitro antimycotic activity on Aspergillus fumigatus; format: cell-based; conditions: TIMM0063, 10 (ppm), Casitone agar, 37° C., 48 hours, read-out: Antimycotic activity (growth inhibitory rate), A.fumigatus
Method: 3-2 In vitro antimycotic activity on Aspergillus fumigatus.
To Aspergillus fumigatus TIMM 0063 precultured at 37° C. for 48 hours on a potato dextrose agar (PDA) slant medium was added a sterilized physiological salt solution containing 0.1%(W/V) Tween 80. After conidia were made free from the solution, the solution was filtered through a sterilized two-sheet gauze to remove the mycelium mass. The number of the conidia in the resulting suspension was counted with a globulimeter and adjusted so as to be 1×10^5 conidia/ml with a sterilized physiological salt solution containing 0.1%(W/V) Tween 80. This solution was used as an inoculum solution. Casitone agar plate medium containing the DMSO solution of the test compound in a rate of 1% (V/V) was inoculated with the inoculum solution at four places thereof with a microplanter, and cultured with the medium allowed to stand at 37° C. for 48 hours. After culture, the diameter of the mycelium disks cultivated at the four inoculated parts was measured, and its mean value was obtained. The growth inhibitory rate was calculated according to the following equation, and the antimycotic activity was shown in the same manner as in Test Example 3-1.
Growth inhibitory rate (%)=(1-W'/Y')×100
Y': Diameter of mycelium disk of DMSO control group
W': Diameter of mycelium disk of test compound group

## COc1snc(OCC#CI)c1C#N [Compound 21, 3-(3-iodo-2-propynyloxy)-4-cyano-5-methoxyisothiazole]
Trichoderma viride
  inhibition at 50 ppm: 95 to 100%
Aspergillus niger
  inhibition at 50 ppm: 95 to 100%
[1]
  pest or weed control at 1000 ppm: 95 to 100%
[2]
  pest or weed control at 200 ppm: 95 to 100%
Rhizoctonia solani
  pest or weed control at 200 ppm: 95 to 100%
[3]
  inhibition of growth at 10 µg/mL: 100%
[4]
  inhibition of growth at 10 µg/mL: 100%

## CSc1snc(OC(C)OCC#CI)c1C#N (stereo not shown) [Compound 119]
Trichoderma viride
  inhibition at 50 ppm: 95 to 100%
Aspergillus niger
  inhibition at 50 ppm: 95 to 100%
[1]
  pest or weed control at 1000 ppm: 95 to 100%
[2]
  pest or weed control at 200 ppm: 95 to 100%
Rhizoctonia solani
  pest or weed control at 200 ppm: 80 to 94%
[3]
  inhibition of growth at 10 µg/mL: 100%
[4]
  inhibition of growth at 10 µg/mL: 100%

## CCOc1nsc(SCOCC#CI)c1C#N [Compound 54]
Trichoderma viride
  inhibition at 50 ppm: 95 to 100%
Aspergillus niger
  inhibition at 50 ppm: 95 to 100%
[1]
  pest or weed control at 1000 ppm: 95 to 100%
[2]
  pest or weed control at 200 ppm: 95 to 100%
Rhizoctonia solani
  pest or weed control at 200 ppm: 95 to 100%
[3]
  inhibition of growth at 10 µg/mL: 100%
[4]
  inhibition of growth at 10 µg/mL: 100%

## CCOc1snc(OCOCC#CI)c1C#N [Compound 96]
Trichoderma viride
  inhibition at 50 ppm: 95 to 100%
Aspergillus niger
  inhibition at 50 ppm: 95 to 100%
[1]
  pest or weed control at 1000 ppm: 95 to 100%
[2]
  pest or weed control at 200 ppm: 95 to 100%
Rhizoctonia solani
  pest or weed control at 200 ppm: 95 to 100%
[3]
  inhibition of growth at 10 µg/mL: 100%
[4]
  inhibition of growth at 10 µg/mL: 100%

## CS(=O)(=O)c1snc(OCC#CI)c1C#N [Compound 41, 3-(3-iodo-2-propynyloxy)-4-cyano-5-methylsulfonylisothiazole]
Trichoderma viride
  inhibition at 50 ppm: 95 to 100%
Aspergillus niger
  inhibition at 50 ppm: 95 to 100%
[1]
  pest or weed control at 1000 ppm: 95 to 100%
[2]
  pest or weed control at 200 ppm: 95 to 100%
Rhizoctonia solani
  pest or weed control at 200 ppm: 80 to 94%
[3]
  inhibition of growth at 10 µg/mL: 100%
[4]
  inhibition of growth at 10 µg/mL: 100%

## CC(C)Oc1snc(OCC#CI)c1C#N [Compound 23]
Trichoderma viride
  inhibition at 50 ppm: 95 to 100%
Aspergillus niger
  inhibition at 50 ppm: 95 to 100%
[1]
  pest or weed control at 1000 ppm: 95 to 100%
[2]
  pest or weed control at 200 ppm: 95 to 100%
Rhizoctonia solani
  pest or weed control at 200 ppm: 80 to 94%
[3]
  inhibition of growth at 10 µg/mL: 100%
[4]
  inhibition of growth at 10 µg/mL: 100%

## CSc1snc(OCC#CI)c1C#N [Compound 1, 3-(3-iodo-2-propynyloxy)-4-cyano-5-methylthioisothiazole]
Trichoderma viride
  inhibition at 50 ppm: 95 to 100%
Aspergillus niger
  inhibition at 50 ppm: 80 to 94%
[1]
  pest or weed control at 1000 ppm: 95 to 100%
[2]
  pest or weed control at 200 ppm: 95 to 100%
Rhizoctonia solani
  pest or weed control at 200 ppm: 60 to 79%
[3]
  inhibition of growth at 10 µg/mL: 100%
[4]
  inhibition of growth at 10 µg/mL: 100%

## N#Cc1c(OCC#CI)nsc1SC(F)F [Compound 12, 3-(3-iodo-2-propynyloxy)-4-cyano-5-difluoromethylthioisothiazole]
Trichoderma viride
  inhibition at 50 ppm: 95 to 100%
Aspergillus niger
  inhibition at 50 ppm: 95 to 100%
[1]
  pest or weed control at 1000 ppm: 95 to 100%
[2]
  pest or weed control at 200 ppm: 95 to 100%
Rhizoctonia solani
  pest or weed control at 200 ppm: 80 to 94%
[3]
  inhibition of growth at 10 µg/mL: 100%
[4]
  inhibition of growth at 10 µg/mL: 100%

## N#Cc1c(OC(F)F)nsc1SCOCC#CI [Compound 60]
Trichoderma viride
  inhibition at 50 ppm: 95 to 100%
Aspergillus niger
  inhibition at 50 ppm: 95 to 100%
[1]
  pest or weed control at 1000 ppm: 95 to 100%
[2]
  pest or weed control at 200 ppm: 95 to 100%
Rhizoctonia solani
  pest or weed control at 200 ppm: 95 to 100%
[3]
  inhibition of growth at 10 µg/mL: 100%
[4]
  inhibition of growth at 10 µg/mL: 100%

## COc1nsc(OCC#CI)c1C#N [Compound 48]
Trichoderma viride
  inhibition at 50 ppm: 95 to 100%
Aspergillus niger
  inhibition at 50 ppm: 95 to 100%
[1]
  pest or weed control at 1000 ppm: 95 to 100%
[2]
  pest or weed control at 200 ppm: 95 to 100%
Rhizoctonia solani
  pest or weed control at 200 ppm: 95 to 100%
[3]
  inhibition of growth at 10 µg/mL: 100%
[4]
  inhibition of growth at 10 µg/mL: 100%

## CN(C)c1snc(OCC#CI)c1C#N [Compound 30, 3-(3-iodo-2-propynyloxy)-4-cyano-5-dimethylaminoisothiazole]
Trichoderma viride
  inhibition at 50 ppm: 95 to 100%
Aspergillus niger
  inhibition at 50 ppm: 95 to 100%
[1]
  pest or weed control at 1000 ppm: 95 to 100%
[2]
  pest or weed control at 200 ppm: 95 to 100%
Rhizoctonia solani
  pest or weed control at 200 ppm: 95 to 100%
[3]
  inhibition of growth at 10 µg/mL: 100%
[4]
  inhibition of growth at 10 µg/mL: 100%

## CSc1snc(OCCC#CI)c1C#N [Compound 70]
Trichoderma viride
  inhibition at 50 ppm: 95 to 100%
Aspergillus niger
  inhibition at 50 ppm: 95 to 100%
[1]
  pest or weed control at 1000 ppm: 80 to 94%
[2]
  pest or weed control at 200 ppm: 80 to 94%
Rhizoctonia solani
  pest or weed control at 200 ppm: 95 to 100%
[3]
  inhibition of growth at 10 µg/mL: 100%
[4]
  inhibition of growth at 10 µg/mL: 100%

## CSc1nsc(SCOCC#CI)c1C#N [Compound 136]
Trichoderma viride
  inhibition at 50 ppm: 95 to 100%
Aspergillus niger
  inhibition at 50 ppm: 95 to 100%
[1]
  pest or weed control at 1000 ppm: 80 to 94%
[2]
  pest or weed control at 200 ppm: 95 to 100%
Rhizoctonia solani
  pest or weed control at 200 ppm: 80 to 94%
[3]
  inhibition of growth at 10 µg/mL: 100%
[4]
  inhibition of growth at 10 µg/mL: 100%

## N#Cc1c(OCOCC#CI)nsc1SC(F)F [Compound 90]
Trichoderma viride
  inhibition at 50 ppm: 95 to 100%
Aspergillus niger
  inhibition at 50 ppm: 95 to 100%
[1]
  pest or weed control at 1000 ppm: 95 to 100%
[2]
  pest or weed control at 200 ppm: 95 to 100%
Rhizoctonia solani
  pest or weed control at 200 ppm: 95 to 100%
[3]
  inhibition of growth at 10 µg/mL: 100%
[4]
  inhibition of growth at 10 µg/mL: 100%

## N#Cc1c(OCC#CI)nsc1S(=O)(=O)C(F)F [Compound 43]
Trichoderma viride
  inhibition at 50 ppm: 95 to 100%
Aspergillus niger
  inhibition at 50 ppm: 95 to 100%
[1]
  pest or weed control at 1000 ppm: 95 to 100%
[2]
  pest or weed control at 200 ppm: 95 to 100%
Rhizoctonia solani
  pest or weed control at 200 ppm: 95 to 100%
[3]
  inhibition of growth at 10 µg/mL: 100%
[4]
  inhibition of growth at 10 µg/mL: 100%

## N#Cc1c(OC(F)F)nsc1OCCC#CI [Compound 82]
Trichoderma viride
  inhibition at 50 ppm: 95 to 100%
Aspergillus niger
  inhibition at 50 ppm: 95 to 100%
[1]
  pest or weed control at 1000 ppm: 95 to 100%
[2]
  pest or weed control at 200 ppm: 95 to 100%
Rhizoctonia solani
  pest or weed control at 200 ppm: 95 to 100%
[3]
  inhibition of growth at 10 µg/mL: 100%
[4]
  inhibition of growth at 10 µg/mL: 100%
